Data: US20050143391A1, “Heterocyclic amides with alpha-4 integrin antagonist activity” (J. Uriach Y Compañia S.A., priority 2002, published 2005)

Target: T1, integrin α4β1 (Homo sapiens, UniProt P05556+P13612)
T1 construct: endogenous in cells; host or cells: Jurkat cells
Experiment: Inhibition of α4β1-dependent cell adhesion (Jurkat cells to peptide CS-1)
Assay type: cell-based
Settings: adhesion of Jurkat cells to CS-1-coated plates; products preincubated with cells at 37° C. for 30 minutes; at least 6 product concentrations
Method: Inhibition of α4β1-Dependent Cell Adhesion
Inhibition of α4β1-dependent cell adhesion was assayed by evaluating the interaction between the peptide CS-1 (H-CLHGPEILDVPST-CONH2) and Jurkat cells (T lymphocyte cell line expressing activated integrin α4β1 but not integrin α4β7) after preincubation of said cells with the compounds of formula I to be tested. The peptide CS-1 was synthesized by conventional solid phase chemistry and purified by HPLC. Its identity was determined by elemental analysis and mass spectroscopy.
1.—Preparation of CS-1-Coated Plates
96-black well plates (Costar 3925) were used. 200 μL of 2% bovine serum albumin solution (BSA, Sigma α4503) was added per well and the plate was incubated for 2 hours at 37° C. The solution was discarded and the plate was washed twice with 200 μL of phosphate buffered saline solution (PBS, Gibco 14190-094) per well. Then, 200 μL of 10 μg/mL N-succinimidyl 3-(2-pyridyldithio)propionate solution (SPDP, Sigma P-3415) was added per well, and the plate was incubated at 37° C. for 30 minutes. The remaining solution was discarded and the plate was twice washed with 200 μL per well of PBS. Next, 200 μL of 25 μg/mL CS-1 peptide solution (equivalent to 5 μg/well) was added per well and the plate was incubated at 37° C. for 2 hours and then overnight at 4° C.
2.—Jurkat Cell Line: Culture and Fluorescent Labelling
Jurkat cells were kept in culture at a density comprised between 2×10^5 and 1.5×10^6 cells/mL in 1640 RPMI medium (Gibco 21875-034) enriched with 10% fetal calf serum (FCS, Gibco 10270-106).
50×10^6 cells were extracted, centrifuged (1200 rpm, 10 min, room temperature) and the medium was discarded. Cells were resuspended in 5 mL of RPMI, and 10 μL of a 1 mM solution of the fluorophore calceine.AM (Molecular Probes, C-3100) was added. The suspension was incubated for 30 min at 37° C. in the darkness, with occasional shaking. 40 mL of RPMI was added to stop the labelling and the suspension was centrifuged (1200 rpm, 10 min, room temperature). The medium was discarded, and the labelled cells were washed with 40 mL of RPMI in order to remove the unincorporated fluorescent probe. Finally, cells were resuspended in RPMI enriched with 10% FCS to obtain a 8×10^6 cells/mL suspension.
The plate previously prepared was twice washed with 200 μL per well of PBS and blocked with 200 μL of 1% BSA for at least 1 hour at room temperature.
The products to be tested were dissolved in dimethylsulfoxide at a concentration of 10 mM and dilutions thereof were prepared in RPMI medium enriched with 10% FCS. The products were preincubated with the Jurkat cells at 37° C. for 30 minutes, at a product concentration comprised between 1 nM and 10 μM, at a cell density of 4×10^6 cells/mL and at a maximal dimethylsulfoxide concentration of 0.1%.
100 μL of the resulting cell-product supsension was added per well (cellular density 4×10^5 cells/well). The product was omitted in the control wells and cells or CS-1 were omitted in the blanks. The plate was incubated for 60 min at room temperature in the-darkness, was twice washed with 200 μL per well of RPMI and then 100 μL of PBS was added. The plate was read with a fluorescence reader at an excitation wavelength of 485 nm and at an emission wavelength of 530 nm.
Maximal adhesion (100%) was determined as the average of the fluorescence intensities (FI) of the control wells, and the minimal adhesion as the average FI of the blanks. The adhesion inhibition percentage was determined using the following formula: [formula]
The results are expressed as the IC50 values (concentration producing 50% inhibition). IC50 values were calculated by testing at least 6 product concentrations and by adjusting the inhibition percentages to a dose-response curve of variable slope.

T1 sequence (P13612 34-1032): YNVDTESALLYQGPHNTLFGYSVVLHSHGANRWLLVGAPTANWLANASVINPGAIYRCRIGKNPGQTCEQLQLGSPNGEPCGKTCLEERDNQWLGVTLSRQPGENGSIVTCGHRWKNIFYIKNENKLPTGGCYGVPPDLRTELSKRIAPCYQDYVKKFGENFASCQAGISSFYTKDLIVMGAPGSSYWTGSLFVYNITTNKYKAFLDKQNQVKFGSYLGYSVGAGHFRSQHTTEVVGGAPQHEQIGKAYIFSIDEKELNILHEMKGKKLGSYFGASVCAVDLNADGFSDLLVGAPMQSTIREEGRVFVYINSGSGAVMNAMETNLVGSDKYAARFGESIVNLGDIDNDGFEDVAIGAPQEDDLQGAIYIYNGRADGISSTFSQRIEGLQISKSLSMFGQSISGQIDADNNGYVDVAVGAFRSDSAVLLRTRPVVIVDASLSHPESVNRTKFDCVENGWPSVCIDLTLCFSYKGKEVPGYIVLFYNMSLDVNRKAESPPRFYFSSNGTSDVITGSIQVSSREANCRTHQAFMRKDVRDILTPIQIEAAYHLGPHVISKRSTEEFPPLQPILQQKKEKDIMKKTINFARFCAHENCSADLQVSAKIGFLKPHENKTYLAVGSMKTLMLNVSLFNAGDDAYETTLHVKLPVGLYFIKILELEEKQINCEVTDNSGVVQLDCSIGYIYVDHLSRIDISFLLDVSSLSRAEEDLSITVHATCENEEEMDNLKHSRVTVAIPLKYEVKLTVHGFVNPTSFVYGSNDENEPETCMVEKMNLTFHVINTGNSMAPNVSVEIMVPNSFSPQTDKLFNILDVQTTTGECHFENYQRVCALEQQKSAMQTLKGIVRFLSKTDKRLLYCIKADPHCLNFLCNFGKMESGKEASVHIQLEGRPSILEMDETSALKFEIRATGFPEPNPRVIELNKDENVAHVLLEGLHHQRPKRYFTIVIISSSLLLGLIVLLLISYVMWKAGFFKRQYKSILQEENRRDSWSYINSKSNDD
T1 sequence (P05556 21-798): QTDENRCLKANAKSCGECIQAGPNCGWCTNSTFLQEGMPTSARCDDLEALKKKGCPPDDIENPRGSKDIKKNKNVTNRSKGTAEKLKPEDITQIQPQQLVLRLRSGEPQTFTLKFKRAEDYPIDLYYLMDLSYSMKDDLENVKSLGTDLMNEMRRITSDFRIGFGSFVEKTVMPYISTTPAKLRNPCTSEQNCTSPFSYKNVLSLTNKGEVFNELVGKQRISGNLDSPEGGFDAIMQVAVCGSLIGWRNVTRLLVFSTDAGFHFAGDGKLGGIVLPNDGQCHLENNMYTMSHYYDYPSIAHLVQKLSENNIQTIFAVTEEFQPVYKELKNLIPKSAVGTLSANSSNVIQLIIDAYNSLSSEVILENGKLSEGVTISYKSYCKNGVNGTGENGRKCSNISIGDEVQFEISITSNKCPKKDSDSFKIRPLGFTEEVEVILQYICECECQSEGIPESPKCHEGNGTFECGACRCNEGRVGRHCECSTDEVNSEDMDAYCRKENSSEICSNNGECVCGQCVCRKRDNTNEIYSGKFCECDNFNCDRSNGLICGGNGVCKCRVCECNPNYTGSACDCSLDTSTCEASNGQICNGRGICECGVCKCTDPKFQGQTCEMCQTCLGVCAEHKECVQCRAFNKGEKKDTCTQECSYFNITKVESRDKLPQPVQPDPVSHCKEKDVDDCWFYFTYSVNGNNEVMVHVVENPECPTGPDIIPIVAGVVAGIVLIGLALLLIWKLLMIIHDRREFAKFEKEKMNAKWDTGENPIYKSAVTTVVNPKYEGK

IC50 | SMILES
23 nM | CC(C)(C)NC(=O)NCC1CCN(C(=O)CC[C@H](NC(=O)[C@@H]2CCCN2S(=O)(=O)c2cc(Cl)cc(Cl)c2)C(=O)O)CC1 [Example 56, (2S)-5-[4-[(N′-tert-Butylureido)methyl]piperidin-1-yl]-2-[1-(3,5-dichlorophenylsulfonyl)-L-prolylamino]-5-oxopentanoic Acid]
305 nM | O=C(O)[C@H](CCC(=O)N1CCC(COc2ccncc2)CC1)NC(=O)[C@@H]1CCCN1S(=O)(=O)c1cc(Cl)cc(Cl)c1 [Example 102, (2S)-2-[1-(3,5-Dichlorophenylsulfonyl)-L-prolylamino]-5-oxo-5-[4-(4-pyridyloxymethyl)piperidin-1-yl]pentanoic Acid]
13.1 nM | O=C(O)[C@H](CCC(=O)N1CCC(CNc2ccncc2)CC1)NC(=O)[C@@H]1CCCN1S(=O)(=O)c1cc(Cl)cc(Cl)c1 [Example 99, (2S)-2-[1-(3,5-Dichlorophenylsulfonyl)-L-prolylamino]-5-oxo-5-[4-(4-pyridylaminomethyl)piperidin-1-yl]pentanoic Acid]
